Source: ChEMBL document CHEMBL1201861, “Genomics of Drug Sensitity in Cancer screening data, Wellcome Trust Sanger Institute”

Experiments:
[1] = system: COLO-741; test: cells; format: functional, cell-based; conditions: Homo sapiens
Description: SANGER: Inhibition of human COLO-741 cell growth in a cell viability assay.

[2] = system: COR-L23; test: cells; format: functional, cell-based; conditions: Homo sapiens;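 also: cell viability assay measuring how strongly compounds suppress growth of COR-L23 cells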
Description: SANGER: Inhibition of human COR-L23 cell growth in a cell viability assay.

[3] = system: CaR-1; test: cells; format: functional, cell-based; conditions: Homo sapiens;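 also: growth inhibition of human CaR-1 cancer cells, read out with a cell viability assay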
Description: SANGER: Inhibition of human CaR-1 cell growth in a cell viability assay.

[4] = system: D-247MG; test: cells; format: functional, cell-based; conditions: Homo sapiens
Description: SANGER: Inhibition of human D-247MG cell growth in a cell viability assay.

[5] = system: DMS-273; test: cells; format: functional, cell-based; conditions: Homo sapiens
Description: SANGER: Inhibition of human DMS-273 cell growth in a cell viability assay.

[6] = system: DOK; test: cells; format: functional, cell-based; conditions: Homo sapiens;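 also: cell viability assay read-out, values reflect inhibition of cell growth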
Description: SANGER: Inhibition of human DOK cell growth in a cell viability assay.

[7] = system: EB-3; test: cells; format: functional, cell-based; conditions: Homo sapiens;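 also: human EB-3 cells, growth inhibition read out via a cell viability assay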
Description: SANGER: Inhibition of human EB-3 cell growth in a cell viability assay.

[8] = system: EGI-1; test: cells; format: functional, cell-based; conditions: Homo sapiens;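 also: cell viability readout used to gauge growth inhibition of EGI-1 cells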
Description: SANGER: Inhibition of human EGI-1 cell growth in a cell viability assay.

[9] = system: G-402; test: cells; format: functional, cell-based; conditions: Homo sapiens
Description: SANGER: Inhibition of human G-402 cell growth in a cell viability assay.

[10] = system: HCT-116; test: cells; format: functional, cell-based; conditions: Homo sapiens
Description: SANGER: Inhibition of human HCT-116 cell growth in a cell viability assay.

[11] = system: HLE; test: cells; format: functional, cell-based; conditions: Homo sapiens;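 also: growth inhibition of human HLE cells, read out by a cell viability assay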
Description: SANGER: Inhibition of human HLE cell growth in a cell viability assay.

[12] = system: Hs-578T; test: cells; format: functional, cell-based; conditions: Homo sapiens
Description: SANGER: Inhibition of human Hs-578-T cell growth in a cell viability assay.

[13] = system: HuO-3N1; test: cells; format: functional, cell-based; conditions: Homo sapiens;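 also: cell viability readout used to measure how strongly compounds suppress proliferation of human HuO-3N1 cells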
Description: SANGER: Inhibition of human HuO-3N1 cell growth in a cell viability assay.

[14] = system: HuP-T4; test: cells; format: functional, cell-based; conditions: Homo sapiens;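 also: cell viability assay measuring how much HuP-T4 cell growth is inhibited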
Description: SANGER: Inhibition of human HuP-T4 cell growth in a cell viability assay.

[15] = system: IGR-1; test: cells; format: functional, cell-based; conditions: Homo sapiens;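 also: growth inhibition of human IGR-1 cells, read out with a cell viability assay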
Description: SANGER: Inhibition of human IGR-1 cell growth in a cell viability assay.

[16] = system: IM-9; test: SANGER: Inhibition of human IM-9 cell growth in a cell viability assay.; format: functional, cell-based
[17] = system: J82; test: cells; format: functional, cell-based; conditions: Homo sapiens;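 also: growth inhibition of J82 cells, read out with a cell viability assay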
Description: SANGER: Inhibition of human J82 cell growth in a cell viability assay.

[18] = system: KYSE-140; test: cells; format: functional, cell-based; conditions: Homo sapiens;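 also: cell viability assay measuring growth inhibition in human KYSE-140 cells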
Description: SANGER: Inhibition of human KYSE-140 cell growth in a cell viability assay.

[19] = system: KYSE-270; test: cells; format: functional, cell-based; conditions: Homo sapiens;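 also: cell growth inhibition measured with a viability assay in the human KYSE-270 line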
Description: SANGER: Inhibition of human KYSE-270 cell growth in a cell viability assay.

[20] = system: KYSE-70 cell line; test: cells; format: functional, cell-based; conditions: Homo sapiens;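 also: cell viability assay read-out, with IC50 expressing suppression of KYSE-70 cell growth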
Description: SANGER: Inhibition of human KYSE-70 cell growth in a cell viability assay.

[21] = system: LCLC-97TM1; test: cells; format: functional, cell-based; conditions: Homo sapiens;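 also: cell viability assay measuring growth inhibition of human LCLC-97TM1 cells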
Description: SANGER: Inhibition of human LCLC-97TM1 cell growth in a cell viability assay.

[22] = system: LN-405; test: cells; format: functional, cell-based; conditions: Homo sapiens
Description: SANGER: Inhibition of human LN-405 cell growth in a cell viability assay.

[23] = system: M059J; test: cells; format: functional, cell-based; conditions: Homo sapiens;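 also: growth inhibition of M059J cells, read out with a cell viability assay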
Description: SANGER: Inhibition of human M059J cell growth in a cell viability assay.

[24] = system: MHH-ES-1; test: cells; format: functional, cell-based; conditions: Homo sapiens
Description: SANGER: Inhibition of human MHH-ES-1 cell growth in a cell viability assay.

[25] = system: MeWo; test: cells; format: functional, cell-based; conditions: Homo sapiens;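 also: growth inhibition of MeWo cells, determined by a cell viability readout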
Description: SANGER: Inhibition of human Mewo cell growth in a cell viability assay.

[26] = system: NALM-6; test: cells; format: functional, cell-based; conditions: Homo sapiens;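 also: growth inhibition of NALM-6 cells, read out with a cell viability assay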
Description: SANGER: Inhibition of human NALM-6 cell growth in a cell viability assay.

[27] = system: NCI-H1437; test: cells; format: functional, cell-based; conditions: Homo sapiens;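 also: growth inhibition of human NCI-H1437 cells, read out by a cell viability assay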
Description: SANGER: Inhibition of human NCI-H1437 cell growth in a cell viability assay.

[28] = system: NCI-H1623; test: cells; format: functional, cell-based; conditions: Homo sapiens;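 also: cell viability assay used as the read-out for growth inhibition of NCI-H1623 cells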
Description: SANGER: Inhibition of human NCI-H1623 cell growth in a cell viability assay.

[29] = system: NCI-H1651; test: cells; format: functional, cell-based; conditions: Homo sapiens;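 also: Read-out is a cell viability assay, with IC50 expressing inhibition of NCI-H1651 cell growth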
Description: SANGER: Inhibition of human NCI-H1651 cell growth in a cell viability assay.

[30] = system: NCI-H1693; test: cells; format: functional, cell-based; conditions: Homo sapiens;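 also: growth inhibition of the human cell line, read out with a cell viability assay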
Description: SANGER: Inhibition of human NCI-H1693 cell growth in a cell viability assay.

[31] = system: NCI-H2347; test: cells; format: functional, cell-based; conditions: Homo sapiens;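 also: growth inhibition of the cell line, read out with a cell viability assay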
Description: SANGER: Inhibition of human NCI-H2347 cell growth in a cell viability assay.

[32] = system: NCI-H2452; test: cells; format: functional, cell-based; conditions: Homo sapiens;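 also: growth inhibition of NCI-H2452 cells, read out with a cell viability assay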
Description: SANGER: Inhibition of human NCI-H2452 cell growth in a cell viability assay.

[33] = system: NCI-H358; test: cells; format: functional, cell-based; conditions: Homo sapiens;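 also: growth inhibition of NCI-H358 human cells, read out with a cell viability assay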
Description: SANGER: Inhibition of human NCI-H358 cell growth in a cell viability assay.

[34] = system: NCI-H460; test: cells; format: functional, cell-based; conditions: Homo sapiens;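 also: cell viability assay scoring growth inhibition of human NCI-H460 cells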
Description: SANGER: Inhibition of human NCI-H460 cell growth in a cell viability assay.

[35] = system: NCI-H64; test: cells; format: functional, cell-based; conditions: Homo sapiens;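 also: growth inhibition of NCI-H64 cells, read out with a cell viability assay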
Description: SANGER: Inhibition of human NCI-H64 cell growth in a cell viability assay.

[36] = system: NCI-H716; test: cells; format: functional, cell-based; conditions: Homo sapiens;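 also: growth inhibition of human NCI-H716 cells, measured by a cell viability assay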
Description: SANGER: Inhibition of human NCI-H716 cell growth in a cell viability assay.

[37] = system: NCI-H719; test: cells; format: functional, cell-based; conditions: Homo sapiens;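 also: growth inhibition of the cultured cell line, read out with a viability assay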
Description: SANGER: Inhibition of human NCI-H719 cell growth in a cell viability assay.

[38] = system: OE19; test: cells; format: functional, cell-based; conditions: Homo sapiens;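 also: growth inhibition of OE19 cells, measured through a cell viability read-out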
Description: SANGER: Inhibition of human OE19 cell growth in a cell viability assay.

[39] = system: PA-1; test: cells; format: functional, cell-based; conditions: Homo sapiens;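 also: IC50 for suppression of PA-1 cell proliferation, determined with a cell viability read-out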
Description: SANGER: Inhibition of human PA-1 cell growth in a cell viability assay.

[40] = system: PC-14; test: cells; format: functional, cell-based; conditions: Homo sapiens;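 also: cell viability assay measuring inhibition of PC-14 cell growth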
Description: SANGER: Inhibition of human PC-14 cell growth in a cell viability assay.

[41] = system: RO82-W-1; test: cells; format: functional, cell-based; conditions: Homo sapiens;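 also: growth inhibition of human RO82-W-1 cells, measured with a cell viability assay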
Description: SANGER: Inhibition of human RO82-W-1 cell growth in a cell viability assay.

[42] = system: RPMI-6666; test: cells; format: functional, cell-based; conditions: Homo sapiens
Description: SANGER: Inhibition of human RPMI-6666 cell growth in a cell viability assay.

[43] = system: SCLC-21H; test: cells; format: functional, cell-based; conditions: Homo sapiens;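 also: growth inhibition of cultured human SCLC-21H cells, read out with a cell viability assay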
Description: SANGER: Inhibition of human SCLC-21H cell growth in a cell viability assay.

[44] = system: SK-MEL-24; test: cells; format: functional, cell-based; conditions: Homo sapiens;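 also: growth inhibition read out by a cell viability assay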
Description: SANGER: Inhibition of human SK-MEL-24 cell growth in a cell viability assay.

[45] = system: SK-MEL-28; test: cells; format: functional, cell-based; conditions: Homo sapiens;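 also: growth inhibition of human SK-MEL-28 cells, read out with a cell viability assay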
Description: SANGER: Inhibition of human SK-MEL-28 cell growth in a cell viability assay.

[46] = system: SK-N-AS; test: cells; format: functional, cell-based; conditions: Homo sapiens;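 also: growth inhibition of human SK-N-AS cells, measured with a cell viability assay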
Description: SANGER: Inhibition of human SK-N-AS cell growth in a cell viability assay.

[47] = system: SW1088; test: cells; format: functional, cell-based; conditions: Homo sapiens;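 also: growth inhibition of human SW1088 cells, read out by a cell viability assay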
Description: SANGER: Inhibition of human SW1088 cell growth in a cell viability assay.

[48] = system: SW1463; test: cells; format: functional, cell-based; conditions: Homo sapiens;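 also: growth inhibition of SW1463 cells, determined with a cell viability assay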
Description: SANGER: Inhibition of human SW1463 cell growth in a cell viability assay.

[49] = system: SW1710; test: cells; format: functional, cell-based; conditions: Homo sapiens;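 also: growth inhibition of SW1710 cells, determined with a cell viability assay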
Description: SANGER: Inhibition of human SW1710 cell growth in a cell viability assay.

[50] = system: SW948; test: cells; format: functional, cell-based; conditions: Homo sapiens;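 also: growth inhibition of SW948 cells, read out with a cell viability assay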
Description: SANGER: Inhibition of human SW948 cell growth in a cell viability assay.

[51] = system: T84; test: cells; format: functional, cell-based; conditions: Homo sapiens;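 also: growth inhibition measured with a cell viability readout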
Description: SANGER: Inhibition of human T84 cell growth in a cell viability assay.

[52] = system: TCC-SUP; test: cells; format: functional, cell-based; conditions: Homo sapiens;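 also: growth inhibition of TCC-SUP cells, read out with a cell viability assay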
Description: SANGER: Inhibition of human TCCSUP cell growth in a cell viability assay.

[53] = system: ABC-1; test: cells; format: functional, cell-based; conditions: Homo sapiens;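 also: growth inhibition of human ABC-1 cells, read out by a cell viability assay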
Description: SANGER: Inhibition of human ABC-1 cell growth in a cell viability assay.

[54] = system: ARH-77; test: cells; format: functional, cell-based; conditions: Homo sapiens;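 also: growth inhibition of ARH-77 cells, read out by a cell viability assay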
Description: SANGER: Inhibition of human ARH-77 cell growth in a cell viability assay.

[55] = system: BEN; test: cells; format: functional, cell-based; conditions: Homo sapiens;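 also: growth inhibition of the BEN cell line, read out with a cell viability assay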
Description: SANGER: Inhibition of human BEN cell growth in a cell viability assay.

[56] = system: BOKU; test: cells; format: functional, cell-based; conditions: Homo sapiens;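 also: growth inhibition of the human BOKU cell line, read out by a cell viability assay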
Description: SANGER: Inhibition of human BOKU cell growth in a cell viability assay.

[57] = system: BXPC-3; test: cells; format: functional, cell-based; conditions: Homo sapiens;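 also: growth inhibition of human BxPC-3 cells, read out by a cell viability assay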
Description: SANGER: Inhibition of human BxPC-3 cell growth in a cell viability assay.

[58] = system: CAKI-1; test: cells; format: functional, cell-based; conditions: Homo sapiens;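 also: growth inhibition of CAKI-1 cells, measured by a cell viability assay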
Description: SANGER: Inhibition of human CAKI-1 cell growth in a cell viability assay.

[59] = system: CAL-39; test: cells; format: functional, cell-based; conditions: Homo sapiens
Description: SANGER: Inhibition of human CAL-39 cell growth in a cell viability assay.

[60] = system: U2OS; test: cells; format: functional, cell-based, U-2-OS; conditions: Homo sapiens
Description: SANGER: Inhibition of human U-2-OS cell growth in a cell viability assay.

[61] = system: UACC-812; test: cells; format: functional, cell-based; conditions: Homo sapiens
Description: SANGER: Inhibition of human UACC-812 cell growth in a cell viability assay.

[62] = system: UMUC3; test: cells; format: functional, cell-based; conditions: Homo sapiens
Description: SANGER: Inhibition of human UM-UC-3 cell growth in a cell viability assay.

[63] = system: CESS; test: SANGER: Inhibition of human CESS cell growth in a cell viability assay.; format: functional, cell-based
[64] = system: EW-22; test: cells; format: functional, cell-based; conditions: Homo sapiens
Description: SANGER: Inhibition of human EW-22 cell growth in a cell viability assay.

[65] = system: MOLT-13; test: cells; format: functional, cell-based; conditions: Homo sapiens
Description: SANGER: Inhibition of human MOLT-13 cell growth in a cell viability assay.

## O=c1[nH]c2ccccc2n1C1CCN(Cc2ccc(-c3nc4cc5[nH]cnc5cc4nc3-c3ccccc3)cc2)CC1
[1]
  IC50: > 2560 nM
[2]
  IC50: > 2560 nM
[3]
  IC50: > 2560 nM
[4]
  IC50: > 2560 nM
[5]
  IC50: > 2560 nM
[6]
  IC50: > 2560 nM
[7]
  IC50: > 2560 nM
[8]
  IC50: > 2560 nM
[9]
  IC50: 1780 nM
[10]
  IC50: > 2560 nM
[11]
  IC50: > 2560 nM
[12]
  IC50: > 2560 nM
[13]
  IC50: > 2560 nM
[14]
  IC50: > 2560 nM
[15]
  IC50: > 2560 nM
[16]
  IC50: > 2560 nM
[17]
  IC50: > 2560 nM
[18]
  IC50: > 2560 nM
[19]
  IC50: > 2560 nM
[20]
  IC50: > 2560 nM
[21]
  IC50: 2300 nM
[22]
  IC50: > 2560 nM
[23]
  IC50: > 2560 nM
[24]
  IC50: > 2560 nM
[25]
  IC50: > 2560 nM
[26]
  IC50: 2150 nM
[27]
  IC50: > 2560 nM
[28]
  IC50: > 2560 nM
[29]
  IC50: > 2560 nM
[30]
  IC50: > 2560 nM
[31]
  IC50: > 2560 nM
[32]
  IC50: > 2560 nM
[33]
  IC50: > 2560 nM
[34]
  IC50: > 2560 nM
[35]
  IC50: > 2560 nM
[36]
  IC50: > 2560 nM
[37]
  IC50: > 2560 nM
[38]
  IC50: > 2560 nM
[39]
  IC50: > 2560 nM
[40]
  IC50: > 2560 nM
[41]
  IC50: > 2560 nM
[42]
  IC50: > 2560 nM
[43]
  IC50: > 2560 nM
[44]
  IC50: > 2560 nM
[45]
  IC50: > 2560 nM
[46]
  IC50: > 2560 nM
[47]
  IC50: > 2560 nM
[48]
  IC50: > 2560 nM
[49]
  IC50: 1390 nM
[50]
  IC50: > 2560 nM
[51]
  IC50: > 2560 nM
[52]
  IC50: > 2560 nM
[53]
  IC50: > 2560 nM
[54]
  IC50: > 2560 nM
[55]
  IC50: > 2560 nM
[56]
  IC50: > 2560 nM
[57]
  IC50: 2220 nM
[58]
  IC50: > 2560 nM
[59]
  IC50: > 2560 nM
[60]
  IC50: > 2560 nM
[61]
  IC50: > 2560 nM
[62]
  IC50: > 2560 nM
[63]
  IC50: > 2560 nM

## Fc1cc(-c2cc[nH]/c(=N/c3ccc(-n4cnc(N5CCOCC5)n4)cc3)n2)cc(N2CCOCC2)c1
[1]
  IC50: > 5120 nM
[2]
  IC50: 1000 nM
[3]
  IC50: 1880 nM
[4]
  IC50: 4670 nM
[5]
  IC50: 105 nM
[6]
  IC50: 858 nM
[7]
  IC50: 1830 nM
[8]
  IC50: 686 nM
[9]
  IC50: 258 nM
[10]
  IC50: 164 nM
[11]
  IC50: 624 nM
[12]
  IC50: > 5120 nM
[13]
  IC50: 1570 nM
[14]
  IC50: 3260 nM
[15]
  IC50: 164 nM
[16]
  IC50: 3340 nM
[17]
  IC50: 800 nM
[18]
  IC50: 1050 nM
[19]
  IC50: 222 nM
[20]
  IC50: 627 nM
[21]
  IC50: 163 nM
[22]
  IC50: 991 nM
[23]
  IC50: 926 nM
[24]
  IC50: 274 nM
[25]
  IC50: 199 nM
[26]
  IC50: 214 nM
[27]
  IC50: 243 nM
[28]
  IC50: 1300 nM
[29]
  IC50: 1070 nM
[30]
  IC50: > 5120 nM
[31]
  IC50: 1020 nM
[32]
  IC50: 1690 nM
[33]
  IC50: 377 nM
[34]
  IC50: 337 nM
[35]
  IC50: 862 nM
[36]
  IC50: 3920 nM
[37]
  IC50: 2240 nM
[38]
  IC50: 1100 nM
[39]
  IC50: 102 nM
[40]
  IC50: 877 nM
[41]
  IC50: > 5120 nM
[42]
  IC50: 296 nM
[43]
  IC50: > 5120 nM
[44]
  IC50: > 5120 nM
[45]
  IC50: > 5120 nM
[46]
  IC50: 1210 nM
[47]
  IC50: > 5120 nM
[48]
  IC50: 649 nM
[49]
  IC50: 232 nM
[50]
  IC50: 835 nM
[51]
  IC50: 1520 nM
[52]
  IC50: > 5120 nM
[53]
  IC50: 889 nM
[54]
  IC50: 574 nM
[55]
  IC50: 585 nM
[56]
  IC50: 3100 nM
[57]
  IC50: 351 nM
[58]
  IC50: 334 nM
[59]
  IC50: 309 nM
[60]
  IC50: > 5120 nM
[61]
  IC50: 4420 nM
[62]
  IC50: 1270 nM
[63]
  IC50: 341 nM

## Cc1[nH]c(/C=C2\C(=O)Nc3ccc(S(=O)(=O)Cc4c(Cl)cccc4Cl)cc32)c(C)c1C(=O)N1CCC[C@@H]1CN1CCCC1 [PHA-665752]
[4]
  IC50: > 2000 nM
[7]
  IC50: > 2000 nM
[64]
  IC50: > 2000 nM
[16]
  IC50: > 2000 nM
[65]
  IC50: > 2000 nM
[26]
  IC50: > 2000 nM
[35]
  IC50: > 2000 nM
[36]
  IC50: > 2000 nM
[37]
  IC50: > 2000 nM
[42]
  IC50: > 2000 nM
[43]
  IC50: > 2000 nM
[54]
  IC50: > 2000 nM
[56]
  IC50: > 2000 nM
[61]
  IC50: > 2000 nM
[63]
  IC50: > 2000 nM
